The assay deals with T1, Bcl-2 protein (Recombinant Human Bcl-2 Protein) (Homo sapiens, UniProt P10415).
T1 construct: purchased Novus NBP2-34889
Put plainly: Binding evaluation of mixture library compounds to Bcl-2 using AS-MS (affinity selection mass spectrometry). The settings on record: for ASMS ratio (%) n = 1 / ASMS ratio (%) n = 2: ASMS Ratio(%)=(A−C)/B×100; for ASMS ratio (%) n = 1: replicate n = 1; for ASMS ratio (%) n = 2: replicate n = 2. Here is the method: For one well of MICROPLATE, 96-well, PP, V-BOTTOM (Greiner bio-one, 651201), DMSO solutions of 12 mixtures (prepared to approximately 0.58 mM based on calculations from the average molecular weight of each mixture), in each of which 100 compounds are mixed, were each dispensed, and dispensed into a total of 12 wells, where the 12 mixtures are mixAI-B4J-01, mixAI-B1M-01, mixAI-B1K-01, mixAI-B10-01, mixAI-B1A-01, mixAI-B3A-01, mixAI-B21-01, mixAI-B2L-01, mixAI-B2N-01, mixAI-B2A-01, mixAI-B2Q-01, and mixAI-B2R-01 listed in [Table AI-03-B4J-01], [Table AI-03-B1M-01], [Table AI-03-B1K-01], [Table AI-03-B10-01], [Table AI-03-B1A-01], [Table AI-03-B3A-01], [Table AI-03-B2I-01], [Table AI-03-B2L-01], [Table AI-03-B2N-01], [Table AI-03-B2A-01], [Table AI-03-B2Q-01], and [AI-03-B2R-01] shown in Example 6. Using the LABCYTE ECHO® 555 Acoustic Dispensing System (BECKMAN COULTER), 70 nL was collected from each of the 12 wells into one arbitrary well to prepare a sample solution with 1200 compounds in the mixed state (the presence of 1152 compounds had already been identified when prepared in Example 6-5-3). (In the present specification, the mixture collected in this one well is referred to as one library.) Furthermore, a Bcl-2 protein (Novus, NBP2-34889, Recombinant Human Bcl-2 Protein, Lot E60145051) (19.2 μL) that had been prepared in advance to be 20.9 μM using a Tris-HCl buffer (25 mM Tris-HCl pH 7.4, 150 mM NaCl, 0.025% Tween-20, 1 mM DTT) was added to the well in which 1200 compounds (the presence of 1152 compounds had already been identified when prepared in Example 6-5-3) were dispensed (final compound concentration […], final Bcl-2 concentration 20 μM), and the mixture was incubated in the dark at 23° C. for 1 hour. Next, using the 96-well MacroSpin column, P-2 Material (Harvard, 74-5655) that had been swollen, conditioning of the 96-well MacroSpin column was performed three times by centrifugation with 200 μL of an assay buffer (25 mM Tris-HCl pH 7.4, 150 mM NaCl, 0.025% Tween-20, 1 mM DTT), 2000 XG, 4° C., 2 min. Subsequently, 20 μL of the sample after incubation was added to the 96-well MacroSpin column, P-2 Material, that had been conditioned, and SEC treatment was performed by centrifugation at 2000×G for 2 minutes. To the liquid passed from the SEC, 32 μL of a 1:1 mixed solution of acetonitrile and methanol (LC/MS grade, Fujifilm Wako Pure Chemical Corporation) was added, the mixture was centrifuged at 1800×G, 4° C., 5 min, and the supernatant was used as analysis sample ASMS (A), while a sample that had been prepared by the same operations at 1200 compounds/well and to which only the Tris-HCl buffer had been added without the Bcl-2 protein was incubated under the same conditions, no 96-well MacroSpin column treatment was performed, the same organic solvent was added, and the supernatant solution obtained by centrifugation was used as STD (B). Next, a sample that had been prepared by the same operations at 1200 compounds/well and to which only the Tris-HCl buffer had been added without the Bcl-2 protein was incubated under the same conditions, the same 96-well MacroSpin column treatment was performed, the same organic solvent was added, and the supernatant solution obtained by centrifugation was used as BK (C), and measured by reversed phase LC/MS.
Then, analysis of the 1200 compounds was carried out for samples A, B, and C with TraceFinder 5.1 (Thermo Fisher Scientific) and CHANCE Software (in-house), and the ASMS Ratio (%) was calculated according to the following calculation formula.
Calculation formula: ASMS Ratio(%)=(A−C)/B×100

Setting [1] is: AS-MS, mixture of 1200 compounds, Bcl-2.
Setting [2] is: AS-MS on the mixture of 1200 library compounds.

These results are taken from patent US20240132431A1, “METHOD FOR ALKYLATING ACIDIC FUNCTIONAL GROUP” (Chugai Seiyaku Kabushiki Kaisha, priority 2021, published 2024).

T1 sequence (P10415 whole entry): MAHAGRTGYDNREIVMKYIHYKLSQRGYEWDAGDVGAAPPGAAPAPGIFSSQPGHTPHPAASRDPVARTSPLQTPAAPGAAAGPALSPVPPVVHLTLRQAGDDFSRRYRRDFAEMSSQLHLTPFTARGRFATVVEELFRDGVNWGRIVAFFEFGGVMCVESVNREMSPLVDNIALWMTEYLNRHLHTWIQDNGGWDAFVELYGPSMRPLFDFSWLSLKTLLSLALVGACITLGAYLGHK

In the case of `CCOc1cncc(-c2cnn(-c3cc(C(=O)N4CCN(c5ccc(C(=O)NCC67CC8CC(CC(C8)C6)C7)cc5)CC4)cc(C(F)(F)F)c3)c2)c1` [B1A044-01, N-(1-Adamantylmethyl)-4-[4-[3-[4-(5-ethoxypyridin-3-yl)pyrazol-1-yl]-5-(trifluoromethyl)benzoyl]piperazin-1-yl]benzamide], under setting [1], the “ASMS ratio (%) n = 1” value was determined as 2.6% and the “ASMS ratio (%) n = 2” value was −1.9%.
With `CCOc1cncc(-c2cc(C(=O)N3CCN(c4ccc(C(=O)NS(=O)(=O)C(C)(C)C)nn4)CC3)cc(C(F)(F)F)c2)c1` [B2L018-01, N-tert-Butylsulfonyl-6-[4-[3-(5-ethoxypyridin-3-yl)-5-(trifluoromethyl)benzoyl]piperazin-1-yl]pyridazine-3-carboxamide], the “ASMS ratio (%)” value is on record as −1.9% (n = 1) and −2.5% (n = 2).
As for `CCOc1cncc(-c2ccc(CN3CCN(c4ccc(C(=O)NCC(F)(F)F)cc4)CC3)c3ccccc23)c1` [B1K066-01, 4-[4-[[4-(5-Ethoxypyridin-3-yl)naphthalen-1-yl]methyl]piperazin-1-yl]-N-(2,2,2-trifluoroethyl)benzamide], under setting [1], the “ASMS ratio (%) n = 1” value is listed as 1.8% and the “ASMS ratio (%) n = 2” value was −0.7%.
For the molecule `CCOc1cncc(-c2cc(CN3CCN(c4ccc(C(=O)NS(=O)(=O)CC56CC7CC(CC(C7)C5)C6)cc4)CC3)cc(OCC)c2)c1` [B2A056-01, N-(1-Adamantylmethylsulfonyl)-4-[4-[[3-ethoxy-5-(5-ethoxypyridin-3-yl)phenyl]methyl]piperazin-1-yl]benzamide], where the note is “AS-MS, mixture library, Bcl-2”, the “ASMS ratio (%) n = 1” value is given as −3.9% and the “ASMS ratio (%) n = 2” value is given as 0.2%.
Turning to `CCOc1cncc(-c2ccc(C(=O)N3CCN(c4ccc(C(=O)NS(C)(=O)=O)nn4)CC3)cc2F)c1` [B2I006-01, 6-[4-[4-(5-Ethoxypyridin-3-yl)-3-fluorobenzoyl]piperazin-1-yl]-N-methylsulfonylpyridazine-3-carboxamide], for the setting “AS-MS, mixture library, Bcl-2”, the “ASMS ratio (%) n = 1” value came out at 0.0% and the “ASMS ratio (%) n = 2” value is 0.0%.
For `CCOc1cncc(-c2ccc(CN3CCN(c4ccc(C(=O)NS(=O)(=O)c5ccc(NCCSc6ccccc6)c(C(F)(F)F)c5)cc4)CC3)c(OC)c2)c1` [B2R054-01, 4-[4-[[4-(5-Ethoxypyridin-3-yl)-2-methoxyphenyl]methyl]piperazin-1-yl]-N-[4-(2-phenylsulfanylethylamino)-3-(trifluoromethyl)phenyl]sulfonylbenzamide], the “ASMS ratio (%)” value is reported as 3.3% (n = 1) and −0.8% (n = 2).
For `CCOc1cncc(-c2cc(CN3CCN(c4ccc(C(=O)NS(=O)(=O)CCC(F)(F)F)cc4)CC3)cc(OC(C)C)c2)c1` [B2N058-01, 4-[4-[[3-(5-Ethoxypyridin-3-yl)-5-propan-2-yloxyphenyl]methyl]piperazin-1-yl]-N-(3,3,3-trifluoropropylsulfonyl)benzamide], the “ASMS ratio (%)” value (n = 1) is 0.0% and the “ASMS ratio (%)” value (n = 2) turned out to be 0.0%.
In the case of `CCOc1cncc(-c2ccc(CN3CCN(c4ccc(C(=O)N(C)CC56CC7CC(CC(C7)C5)C6)nn4)CC3)c(OC)c2)c1` [B3A080-01, N-(1-Adamantylmethyl)-6-[4-[[4-(5-ethoxypyridin-3-yl)-2-methoxyphenyl]methyl]piperazin-1-yl]-N-methylpyridazine-3-carboxamide], under setting [2], the “ASMS ratio (%) n = 1” value amounted to 1.7% and the “ASMS ratio (%) n = 2” value is on record as −1.8%.
For `CCOc1cccc(-c2cc(CN3CCN(c4ccc(C(=O)NS(=O)(=O)C(C)(C)C)nn4)CC3)cc(OC(F)(F)F)c2)c1` [B2L089-01, N-tert-Butylsulfonyl-6-[4-[[3-(3-ethoxyphenyl)-5-(trifluoromethoxy)phenyl]methyl]piperazin-1-yl]pyridazine-3-carboxamide], the “ASMS ratio (%)” value runs as follows: (n = 1) 0.0%; (n = 2) 0.0%.
As to “4-[4-[[2-(3-Ethoxyphenyl)phenyl]methyl]piperazin-1-yl]-N-propylbenzamide [B1M040-01]”, under setting [1], the “ASMS ratio (%) n = 1” value is recorded as −0.3% and the “ASMS ratio (%) n = 2” value turned out to be 0.0%.
For “4-[4-[[3-(3-Ethoxyphenyl)-5-(trifluoromethoxy)phenyl]methyl]piperazin-1-yl]-N-propylbenzamide [B1M032-01]”, under setting [1], the “ASMS ratio (%) n = 1” value stood at 0.3% and the “ASMS ratio (%) n = 2” value is listed as 0.3%.
With `CCOc1cncc(-c2ccccc2CCC(=O)N2CCN(c3ccc(C(=O)NS(=O)(=O)CC45CC6CC(CC(C6)C4)C5)cc3)CC2)c1` [B2A034-01, N-(1-Adamantylmethylsulfonyl)-4-[4-[3-[2-(5-ethoxypyridin-3-yl)phenyl]propanoyl]piperazin-1-yl]benzamide], where the note is “AS-MS, mixture library, Bcl-2”, the “ASMS ratio (%) n = 1” value was 1.6% and the “ASMS ratio (%) n = 2” value is reported as 0.3%.
Turning to `CCOc1cncc(-c2ccc(C(=O)N3CCN(c4ccc(C(=O)NS(=O)(=O)C(C)(C)C)nn4)CC3)cc2C)c1` [B2L004-01, N-tert-Butylsulfonyl-6-[4-[4-(5-ethoxypyridin-3-yl)-3-methylbenzoyl]piperazin-1-yl]pyridazine-3-carboxamide], the “ASMS ratio (%)” value by setting is: (n = 1) 5.5%; (n = 2) 9.3%.
With “6-[4-[[4-(3-Ethoxyphenyl)-3-methylphenyl]methyl]piperazin-1-yl]-N-propylpyridazine-3-carboxamide [B1M059-01]”, under setting [1], the “ASMS ratio (%) n = 1” value was −5.5% and the “ASMS ratio (%) n = 2” value is listed as −7.2%.
Turning to `CCOc1cncc(-c2ccccc2CN2CCN(c3ccc(C(=O)Nc4ccc(OC)cc4)cc3)CC2)c1` [B1O046-01, 4-[4-[[2-(5-Ethoxypyridin-3-yl)phenyl]methyl]piperazin-1-yl]-N-(4-methoxyphenyl)benzamide], under setting [2], the “ASMS ratio (%) n = 1” value is given as 0.6% and the “ASMS ratio (%) n = 2” value was 1.3%.
On to `CCOc1cncc(-c2ccc(C(C)N3CCN(c4ccc(C(=O)NCC(F)(F)F)cc4)CC3)c(F)c2)c1` (stereo not drawn) [B1K100-01, 4-[4-[1-[4-(5-Ethoxypyridin-3-yl)-2-fluorophenyl]ethyl]piperazin-1-yl]-N-(2,2,2-trifluoroethyl)benzamide], for which, under setting [1], the “ASMS ratio (%) n = 1” value came out at 0.0% and the “ASMS ratio (%) n = 2” value stood at 0.0%.
In the case of `CCOc1cccc(-c2cc(OC)c(CN3CCN(c4ccc(C(=O)N(CC)CC)nn4)CC3)c(OC)c2)c1` [B4J085-01, 6-[4-[[4-(3-Ethoxyphenyl)-2,6-dimethoxyphenyl]methyl]piperazin-1-yl]-N,N-diethylpyridazine-3-carboxamide], where the note is “AS-MS, mixture library, Bcl-2”, the “ASMS ratio (%) n = 1” value was found to be 0.0% and the “ASMS ratio (%) n = 2” value was found to be 2.8%.
On the same counts, the results for `CCOc1cncc(-c2csc(C(=O)N3CCN(c4ccc(C(=O)NS(=O)(=O)CC56CC7CC(CC(C7)C5)C6)cc4)CC3)c2)c1` [B2A024-01, N-(1-Adamantylmethylsulfonyl)-4-[4-[4-(5-ethoxypyridin-3-yl)thiophene-2-carbonyl]piperazin-1-yl]benzamide] are −1.9% and 0.0%.
